Data on 13 molecules can be found in US20260297085A1, “1 H-PYRROLO[2,3-B]PYRIDIN-4-YL]-2-OXOPYRROLIDINE-3-CARBONITRILE DERIVATIVES AS TYROSINE KINASE 2 (TYK2) INHIBITORS FOR THE TREATMENT OF INFLAMMATORY DISEASES” (BIOGEN MA INC., priority 2023, published 2026).

In assay [1] the target is JAK2 kinase activity on STAT5 in TF1 cells (Homo sapiens, UniProt O60674). As to the kind of experiment: pSTAT5 cell assay (MSD; TF1 cells, 30 ng/mL IL-3 stimulation). The note with it: 30 ng/mL IL-3, 15 minutes. It is filed as cell-based. In short, it runs like this: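 Serum-starved TF1 cells with native JAK2/STAT5 were pretreated 1 h with compound (10-point four-fold dilutions from 10 μM), then stimulated 15 min with 30 ng/mL IL-3. pSTAT5 in lysates quantified by MSD immunoassay; normalized percent activity fitted to a 4-parameter logistic curve for IC50.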

For assay [2], the target named is JAK1 kinase activity on STAT3 in TF1 cells (Homo sapiens, UniProt P23458). As to the kind of experiment: pSTAT3 cell assay (MSD; TF1 cells, 30 ng/mL IL-6 stimulation). It is filed as cell-based. The note with it: 30 ng/mL IL-6, 15 minutes. A digest of the protocol: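 Readout is pSTAT3 in lysates, quantified on an MSD plate assay using anti-STAT3 antibodies. Before lysis, TF1 cells had been serum-starved, exposed to compound for 1 hour across ten four-fold dilutions starting at 10 μM, and given IL-6 for 15 minutes.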

Assay [3] deals with T1, human JAK2 kinase domain (JH1) (Homo sapiens, UniProt O60674).
T1 construct: recombinantly generated catalytic kinase (also known as JH1) domain of human JAK1, JAK2, JAK3 and TYK2
As to the kind of experiment: JH1 biochemical assay for JAK2 (ADP-Glo kinase assay, recombinant JH1 catalytic domain, JAK3-974 peptide, 15 μM ATP). Particulars: JH1 kinase domain, ADP-Glo. A digest of the protocol:
(§1)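 Reactions contain 50 μM peptide and run 100 minutes, with enzyme at 4, 0.2, 0.3 and 2 nM for JAK1, JAK2, JAK3 and TYK2. Generated ADP is read by luminescence; IC50 derives from normalized dose-response curves.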
A general note: ADP-Glo turns the ADP formed in a reaction into a luminescent signal.

The target of assay [4] is T2, human JAK1 kinase domain (JH1) (Homo sapiens, UniProt P23458).
T2 construct: recombinantly generated catalytic kinase (also known as JH1) domain of human JAK1, JAK2, JAK3 and TYK2
As to the kind of experiment: JH1 biochemical assay for JAK1 (ADP-Glo kinase assay, recombinant JH1 catalytic domain, JAK3-342 peptide, 35 μM ATP). The note with it: JH1 kinase domain, ADP-Glo. In short, it runs like this: as §1

The target of assay [5] is T3, human TYK2 kinase domain (JH1) (Homo sapiens, UniProt P29597).
T3 construct: recombinantly generated catalytic kinase (also known as JH1) domain of human JAK1, JAK2, JAK3 and TYK2
T3 sequence (P29597 897-1176 limits assumed): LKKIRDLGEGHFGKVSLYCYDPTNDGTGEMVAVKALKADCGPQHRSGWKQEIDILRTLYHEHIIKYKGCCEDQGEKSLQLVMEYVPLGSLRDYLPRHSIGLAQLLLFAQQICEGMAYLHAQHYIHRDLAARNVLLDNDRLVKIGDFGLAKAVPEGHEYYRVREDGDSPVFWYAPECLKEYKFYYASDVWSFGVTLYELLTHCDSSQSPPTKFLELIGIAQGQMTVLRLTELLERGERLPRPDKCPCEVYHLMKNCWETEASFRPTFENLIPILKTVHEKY
As to the kind of experiment: JH1 biochemical assay for TYK2 (ADP-Glo kinase assay, recombinant JH1 catalytic domain, JAK3-974 peptide, 10 μM ATP). Particulars: JH1 kinase domain, ADP-Glo. A digest of the protocol: as §1

The target of assay [6] is T4, human JAK3 kinase domain (JH1) (Homo sapiens, UniProt P52333).
T4 construct: recombinantly generated catalytic kinase (also known as JH1) domain of human JAK1, JAK2, JAK3 and TYK2
As to the kind of experiment: JH1 biochemical assay for JAK3 (ADP-Glo kinase assay, recombinant JH1 catalytic domain, JAK3-974 peptide, 4 μM ATP). The note with it: JH1 kinase domain, ADP-Glo. In short, it runs like this:
as §1

In assay [7] the target is Tyk2 kinase activity on STAT4 in NK92 cells (Homo sapiens, UniProt P29597). As to the kind of experiment: pSTAT4 cell assay (MSD; NK92 cells, 30 ng/mL IL2 stimulation). The assay is classed as cell-based. The note with it: 30 ng/mL IL2, 15 minutes. In short, it runs like this:
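Serum-starved NK92 cells were preincubated 1 hr with compound (10-point, four-fold dilutions from 10 μM), then stimulated with 30 ng/mL IL2 for 15 minutes. Lysates were read on an MSD plate assay using anti-STAT4 antibodies, and IC50 came from a 4-parameter logistic fit of normalized percent activity.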

Counter-ions that a name gives are not always drawn. Some results are limits rather than exact numbers.

Broadly, the IC50 is the concentration that inhibits the measured activity by half.

T1 sequence (O60674 849-1124 limits assumed): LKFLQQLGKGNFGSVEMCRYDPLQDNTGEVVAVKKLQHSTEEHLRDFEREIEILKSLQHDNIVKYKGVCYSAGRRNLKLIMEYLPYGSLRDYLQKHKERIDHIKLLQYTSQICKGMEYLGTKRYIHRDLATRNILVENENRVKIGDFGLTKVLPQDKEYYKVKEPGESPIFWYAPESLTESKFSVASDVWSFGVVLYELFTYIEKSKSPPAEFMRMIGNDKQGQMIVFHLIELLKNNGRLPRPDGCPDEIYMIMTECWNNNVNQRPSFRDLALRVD
JAK1 kinase activity on STAT3 in TF1 cells, sequence (P23458 whole entry): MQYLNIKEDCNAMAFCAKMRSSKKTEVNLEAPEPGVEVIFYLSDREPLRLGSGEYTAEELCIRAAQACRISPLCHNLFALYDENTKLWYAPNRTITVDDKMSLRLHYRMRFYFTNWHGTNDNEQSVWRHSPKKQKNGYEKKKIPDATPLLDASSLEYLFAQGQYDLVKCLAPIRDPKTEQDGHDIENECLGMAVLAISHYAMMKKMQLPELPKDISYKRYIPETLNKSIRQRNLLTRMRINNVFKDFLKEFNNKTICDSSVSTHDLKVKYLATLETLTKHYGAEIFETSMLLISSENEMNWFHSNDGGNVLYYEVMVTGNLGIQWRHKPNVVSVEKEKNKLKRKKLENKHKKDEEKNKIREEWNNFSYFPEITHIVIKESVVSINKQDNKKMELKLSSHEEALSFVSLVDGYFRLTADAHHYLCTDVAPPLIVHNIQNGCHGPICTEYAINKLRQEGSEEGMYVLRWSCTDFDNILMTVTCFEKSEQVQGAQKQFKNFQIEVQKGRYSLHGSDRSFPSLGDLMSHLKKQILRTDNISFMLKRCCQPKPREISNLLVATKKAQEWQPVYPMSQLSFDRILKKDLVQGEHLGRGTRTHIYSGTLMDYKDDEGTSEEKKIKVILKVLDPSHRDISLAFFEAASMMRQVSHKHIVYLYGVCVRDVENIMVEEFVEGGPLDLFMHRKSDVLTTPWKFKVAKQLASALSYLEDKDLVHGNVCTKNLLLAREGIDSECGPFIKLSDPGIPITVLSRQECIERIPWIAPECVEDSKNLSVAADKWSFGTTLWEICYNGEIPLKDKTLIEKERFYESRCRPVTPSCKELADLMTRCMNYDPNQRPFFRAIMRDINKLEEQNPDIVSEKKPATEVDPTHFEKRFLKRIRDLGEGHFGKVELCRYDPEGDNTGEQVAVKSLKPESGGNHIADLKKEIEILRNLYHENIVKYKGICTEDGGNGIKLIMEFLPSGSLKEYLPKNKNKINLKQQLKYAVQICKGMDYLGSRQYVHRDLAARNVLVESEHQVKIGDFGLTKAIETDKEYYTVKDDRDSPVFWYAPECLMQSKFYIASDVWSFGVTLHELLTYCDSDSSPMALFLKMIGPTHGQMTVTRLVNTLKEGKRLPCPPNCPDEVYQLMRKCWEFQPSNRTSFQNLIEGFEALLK
T4 sequence (P52333 822-1111 limits assumed): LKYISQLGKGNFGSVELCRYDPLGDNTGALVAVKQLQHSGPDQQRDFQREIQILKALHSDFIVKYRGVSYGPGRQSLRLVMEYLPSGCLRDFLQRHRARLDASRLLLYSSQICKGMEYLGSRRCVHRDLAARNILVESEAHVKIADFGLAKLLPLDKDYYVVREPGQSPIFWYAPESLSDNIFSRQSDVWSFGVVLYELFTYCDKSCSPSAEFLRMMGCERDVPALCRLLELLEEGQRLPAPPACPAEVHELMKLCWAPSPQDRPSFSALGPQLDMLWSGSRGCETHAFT
T2 sequence (P23458 875-1153 limits assumed): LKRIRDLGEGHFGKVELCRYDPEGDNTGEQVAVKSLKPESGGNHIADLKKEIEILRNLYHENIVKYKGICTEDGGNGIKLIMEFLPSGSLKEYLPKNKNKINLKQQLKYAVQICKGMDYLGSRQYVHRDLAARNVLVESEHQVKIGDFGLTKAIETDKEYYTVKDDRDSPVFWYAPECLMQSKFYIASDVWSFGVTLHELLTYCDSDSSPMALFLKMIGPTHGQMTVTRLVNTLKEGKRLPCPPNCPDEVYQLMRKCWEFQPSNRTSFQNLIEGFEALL
JAK2 kinase activity on STAT5 in TF1 cells, sequence (O60674 whole entry): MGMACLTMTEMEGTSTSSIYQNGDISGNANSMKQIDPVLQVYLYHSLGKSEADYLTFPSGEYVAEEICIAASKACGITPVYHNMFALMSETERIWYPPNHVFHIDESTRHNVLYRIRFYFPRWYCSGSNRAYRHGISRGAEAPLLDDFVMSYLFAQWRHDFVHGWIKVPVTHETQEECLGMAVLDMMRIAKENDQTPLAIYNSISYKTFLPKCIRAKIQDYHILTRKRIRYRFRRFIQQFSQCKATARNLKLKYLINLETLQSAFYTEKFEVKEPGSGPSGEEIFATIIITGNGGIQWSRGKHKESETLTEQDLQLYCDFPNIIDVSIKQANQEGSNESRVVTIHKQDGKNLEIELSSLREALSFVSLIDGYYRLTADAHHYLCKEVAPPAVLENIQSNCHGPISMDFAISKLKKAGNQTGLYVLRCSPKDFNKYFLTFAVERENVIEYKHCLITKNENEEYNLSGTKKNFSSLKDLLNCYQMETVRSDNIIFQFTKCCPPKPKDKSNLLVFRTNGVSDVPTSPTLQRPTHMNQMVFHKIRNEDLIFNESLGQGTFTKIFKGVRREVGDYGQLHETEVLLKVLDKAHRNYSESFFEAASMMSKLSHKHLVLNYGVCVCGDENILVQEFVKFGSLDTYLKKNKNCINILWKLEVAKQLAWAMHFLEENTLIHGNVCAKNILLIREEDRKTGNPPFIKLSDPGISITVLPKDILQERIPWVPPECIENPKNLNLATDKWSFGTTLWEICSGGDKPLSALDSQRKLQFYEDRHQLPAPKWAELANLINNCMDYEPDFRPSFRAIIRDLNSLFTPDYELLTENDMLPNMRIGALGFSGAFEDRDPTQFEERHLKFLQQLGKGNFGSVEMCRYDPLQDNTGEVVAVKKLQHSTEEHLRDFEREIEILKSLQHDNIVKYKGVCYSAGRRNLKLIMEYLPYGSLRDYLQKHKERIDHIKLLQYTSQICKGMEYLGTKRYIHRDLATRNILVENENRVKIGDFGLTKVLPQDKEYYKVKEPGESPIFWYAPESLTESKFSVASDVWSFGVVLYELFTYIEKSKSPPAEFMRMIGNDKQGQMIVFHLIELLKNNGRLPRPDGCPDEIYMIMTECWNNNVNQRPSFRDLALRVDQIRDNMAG
Tyk2 kinase activity on STAT4 in NK92 cells, sequence (P29597 whole entry): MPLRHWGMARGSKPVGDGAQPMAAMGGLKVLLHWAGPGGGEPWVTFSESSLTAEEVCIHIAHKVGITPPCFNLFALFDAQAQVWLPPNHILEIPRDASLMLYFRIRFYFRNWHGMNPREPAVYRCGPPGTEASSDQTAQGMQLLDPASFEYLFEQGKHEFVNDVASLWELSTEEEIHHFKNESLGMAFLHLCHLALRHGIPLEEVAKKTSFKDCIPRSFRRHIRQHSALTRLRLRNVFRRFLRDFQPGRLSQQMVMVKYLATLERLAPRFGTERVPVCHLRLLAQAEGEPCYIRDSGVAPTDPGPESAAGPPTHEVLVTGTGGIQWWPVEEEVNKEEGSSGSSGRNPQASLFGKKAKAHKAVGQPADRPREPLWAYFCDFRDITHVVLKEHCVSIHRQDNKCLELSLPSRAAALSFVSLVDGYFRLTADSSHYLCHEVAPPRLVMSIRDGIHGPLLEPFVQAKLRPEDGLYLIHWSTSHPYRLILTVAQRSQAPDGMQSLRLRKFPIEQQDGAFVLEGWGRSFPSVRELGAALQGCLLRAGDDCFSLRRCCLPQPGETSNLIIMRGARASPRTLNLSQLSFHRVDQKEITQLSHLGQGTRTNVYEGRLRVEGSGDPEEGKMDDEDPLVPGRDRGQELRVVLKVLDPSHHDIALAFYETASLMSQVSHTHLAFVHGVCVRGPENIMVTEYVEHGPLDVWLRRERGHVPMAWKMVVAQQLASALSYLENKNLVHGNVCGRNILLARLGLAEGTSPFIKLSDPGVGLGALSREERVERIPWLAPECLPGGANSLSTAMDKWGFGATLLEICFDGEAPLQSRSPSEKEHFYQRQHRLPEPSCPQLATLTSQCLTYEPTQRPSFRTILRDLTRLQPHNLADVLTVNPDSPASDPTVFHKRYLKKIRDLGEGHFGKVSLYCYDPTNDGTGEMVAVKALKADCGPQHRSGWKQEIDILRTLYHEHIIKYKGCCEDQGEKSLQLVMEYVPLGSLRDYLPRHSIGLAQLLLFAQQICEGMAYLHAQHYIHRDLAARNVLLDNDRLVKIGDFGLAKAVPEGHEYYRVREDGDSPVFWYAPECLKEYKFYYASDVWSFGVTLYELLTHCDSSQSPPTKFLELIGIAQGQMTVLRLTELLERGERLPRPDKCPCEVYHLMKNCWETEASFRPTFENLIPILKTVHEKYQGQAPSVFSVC

Regarding `Cc1cnc(-c2cc3c(N4C[C@@H](C)[C@@](C#N)(C5CC5)C4=O)ccnn3c2)s1` [Example 118, (3R,4S)-3-cyclopropyl-4-methyl-1-(6-(5-methylthiazol-2-yl)pyrrolo[1,2-b]pyridazin-4-yl)-2-oxopyrrolidine-3-carbonitrile trifluoroacetate], the IC50 is above 10000 nM in assay [1]; 5000 to 10000 nM in assay [2]; 100 to 1000 nM in assay [3]; 100 to 1000 nM in assay [4]; 5 to 20 nM in assay [5]; 100 to 1000 nM in assay [6]. In assay [7], this molecule displayed an IC50 above 100 nM.

`C[C@@H]1CN(c2ccnn3cc(-c4ccc(C(=O)N(C)C)cn4)cc23)C(=O)[C@]1(C#N)C1CC1` [Example 124, 6-(4-((3R,4S)-3-cyano-3-cyclopropyl-4-methyl-2-oxopyrrolidin-1-yl)pyrrolo[1,2-b]pyridazin-6-yl)-N,N-dimethylnicotinamide trifluoroacetate]: the IC50 in assay [1] is 5000 to 10000 nM; in assay [2] it was 5000 to 10000 nM; in assay [3], 100 to 1000 nM; in assay [4], 100 to 1000 nM; in assay [5] it was 5 to 20 nM; in assay [6], 100 to 1000 nM. Also, in assay [7], the IC50 was above 100 nM.

With `C[C@@H]1CN(c2ccnn3cc(-c4ccc(CC#N)cn4)cc23)C(=O)[C@]1(C#N)C1CC1` [Example 127, (3R,4S)-1-(6-(5-(cyanomethyl)pyridin-2-yl)pyrrolo[1,2-b]pyridazin-4-yl)-3-cyclopropyl-4-methyl-2-oxopyrrolidine-3-carbonitrile trifluoroacetate], the IC50 in assay [1] was above 10000 nM; in assay [2], 5000 to 10000 nM; in assay [3], 100 to 1000 nM; in assay [4] it was 100 to 1000 nM; in assay [5] it was 5 to 20 nM; in assay [6], 100 to 1000 nM. The IC50 in assay [7] is above 100 nM.

Consider `C[C@@H]1CN(c2ccnn3cc(-c4cccc5cncn45)cc23)C(=O)[C@]1(C#N)C1CC1` [Example 128, (3R,4S)-3-cyclopropyl-1-(6-(imidazo[1,5-a]pyridin-5-yl)pyrrolo[1,2-b]pyridazin-4-yl)-4-methyl-2-oxopyrrolidine-3-carbonitrile trifluoroacetate], for which the IC50 in assay [1] was above 10000 nM; in assay [2] it was above 10000 nM; in assay [3], 1000 to 5000 nM; in assay [4], 100 to 1000 nM; in assay [5], 5 to 20 nM; in assay [6], 100 to 1000 nM. In addition, the IC50 in assay [7] was above 100 nM.

With `CC(=O)Nc1cccc(-c2cc3c(N4C[C@@H](C)[C@@](C#N)(C5CC5)C4=O)ccnn3c2)n1` [Example 131, N-(6-(4-((3R,4S)-3-cyano-3-cyclopropyl-4-methyl-2-oxopyrrolidin-1-yl)pyrrolo[1,2-b]pyridazin-6-yl)pyridin-2-yl)acetamide trifluoroacetate], the IC50 was 1000 to 5000 nM in assay [1]; 100 to 1000 nM in assay [2]; 100 to 1000 nM in assay [3]; below 100 nM in assay [4]; below 5 nM in assay [5]; 100 to 1000 nM in assay [6]. In assay [7], this molecule gave an IC50 of 50 to 100 nM.

Take `C[C@@H]1CN(c2ccnn3cc(-c4ccc(N(C)C)cn4)cc23)C(=O)[C@]1(C#N)C1CC1` [Example 134, (3R,4S)-3-cyclopropyl-1-(6-(5-(dimethylamino)pyridin-2-yl)pyrrolo[1,2-b]pyridazin-4-yl)-4-methyl-2-oxopyrrolidine-3-carbonitrile trifluoroacetate]: the IC50 lay within 5000 to 10000 nM in assay [1]; 1000 to 5000 nM in assay [2]; 100 to 1000 nM in assay [3]; 100 to 1000 nM in assay [4]; 5 to 20 nM in assay [5]; 100 to 1000 nM in assay [6]. This molecule yielded an IC50 in assay [7] above 100 nM.

In the case of `C[C@@H]1CN(c2ccnn3cc(-c4cccc(C(F)F)n4)cc23)C(=O)[C@]1(C#N)C1CC1` [Example 135, (3R,4S)-3-cyclopropyl-1-(6-(6-(difluoromethyl)pyridin-2-yl)pyrrolo[1,2-b]pyridazin-4-yl)-4-methyl-2-oxopyrrolidine-3-carbonitrile trifluoroacetate], the IC50 in assay [1] is above 10000 nM; in assay [2] it was 1000 to 5000 nM; in assay [3], 100 to 1000 nM; in assay [4], 100 to 1000 nM; in assay [5], 5 to 20 nM; in assay [6], 100 to 1000 nM. Moreover, the IC50 in assay [7] was above 100 nM.

On to `COc1ccc(-c2cc3c(N4C[C@@H](C)[C@@](C#N)(C5CC5)C4=O)ccnn3c2)nc1` [Example 145, (3R,4S)-3-cyclopropyl-1-(6-(5-methoxypyridin-2-yl)pyrrolo[1,2-b]pyridazin-4-yl)-4-methyl-2-oxopyrrolidine-3-carbonitrile trifluoroacetate], for which the IC50 was above 10000 nM in assay [1]; 5000 to 10000 nM in assay [2]; 100 to 1000 nM in assay [3]; 100 to 1000 nM in assay [4]; 5 to 20 nM in assay [5]; 100 to 1000 nM in assay [6]. The IC50 in assay [7] was above 100 nM.

On to `C[C@@H]1CN(c2ccnn3cc(-c4cnn(C5CC(F)(F)C5)c4)cc23)C(=O)[C@]1(C#N)C1CC1` [Example 157, (3R,4S)-3-cyclopropyl-1-(6-(1-(3,3-difluorocyclobutyl)-1H-pyrazol-4-yl)pyrrolo[1,2-b]pyridazin-4-yl)-4-methyl-2-oxopyrrolidine-3-carbonitrile], for which the IC50 in assay [1] is 1000 to 5000 nM; in assay [2], 100 to 1000 nM; in assay [3], below 100 nM; in assay [4] it was below 100 nM; in assay [5] it was below 5 nM; in assay [6] it was below 100 nM. The IC50 in assay [7] is 50 to 100 nM.

For the molecule `C[C@@H]1CN(c2ccnn3cc(-c4cnn(-c5ccccn5)c4)cc23)C(=O)[C@]1(C#N)C1CC1` [Example 158, (3R,4S)-3-cyclopropyl-4-methyl-2-oxo-1-(6-(1-(pyridin-2-yl)-1H-pyrazol-4-yl)pyrrolo[1,2-b]pyridazin-4-yl)pyrrolidine-3-carbonitrile], the IC50 in assay [1] is above 10000 nM; in assay [2], 1000 to 5000 nM; in assay [3] it was 100 to 1000 nM; in assay [4] it was 100 to 1000 nM; in assay [5] it was below 5 nM; in assay [6], 100 to 1000 nM. The molecule further yielded an IC50 in assay [7] above 100 nM.

For `C[C@@H]1CN(c2ccnn3cc(-c4cnn(-c5cccnc5)c4)cc23)C(=O)[C@]1(C#N)C1CC1` [Example 159, (3R,4S)-3-cyclopropyl-4-methyl-2-oxo-1-(6-(1-(pyridin-3-yl)-1H-pyrazol-4-yl)pyrrolo[1,2-b]pyridazin-4-yl)pyrrolidine-3-carbonitrile], the IC50 in assay [1] was 5000 to 10000 nM; in assay [2] it was 1000 to 5000 nM; in assay [3], 100 to 1000 nM; in assay [4], 100 to 1000 nM; in assay [5] it was below 5 nM; in assay [6] it was 100 to 1000 nM. The IC50 in assay [7] was 50 to 100 nM.

With `C[C@@H]1CN(c2ccnn3cc(-c4cnn(-c5ccncc5)c4)cc23)C(=O)[C@]1(C#N)C1CC1` [Example 160, (3R,4S)-3-cyclopropyl-4-methyl-2-oxo-1-(6-(1-(pyridin-4-yl)-1H-pyrazol-4-yl)pyrrolo[1,2-b]pyridazin-4-yl)pyrrolidine-3-carbonitrile], the IC50 is 1000 to 5000 nM in assay [1]; 1000 to 5000 nM in assay [2]; 100 to 1000 nM in assay [3]; 100 to 1000 nM in assay [4]; below 5 nM in assay [5]; 100 to 1000 nM in assay [6]. In assay [7], this molecule had an IC50 of 50 to 100 nM.

Take `C[C@@H]1CN(c2ccnn3cc(-c4cnn(C5CC5)c4)cc23)C(=O)[C@]1(C#N)C1CC1` [Example 161, (3R,4S)-3-cyclopropyl-1-(6-(1-cyclopropyl-1H-pyrazol-4-yl)pyrrolo[1,2-b]pyridazin-4-yl)-4-methyl-2-oxopyrrolidine-3-carbonitrile]: the IC50 in assay [1] was 1000 to 5000 nM; in assay [2], 1000 to 5000 nM; in assay [3], 100 to 1000 nM; in assay [4] it was 100 to 1000 nM; in assay [5] it was below 5 nM; in assay [6], 100 to 1000 nM. The concentration for half-maximal inhibition (IC50) in assay [7] lay in the range of 20 to 50 nM.
